Patent publication US20150030566A1, “ANTIMICROBIAL PEPTIDE COMPOSITIONS FOR PLANTS” (Stellenbosch University, priority 2012, published 2015)
Where two headings read alike, the source gives them in different places. Non-standard residues stand in square brackets, D forms with d. Residues, ends and D or L forms follow the SMILES beside them. No end group written: not given here. Orn = NCCC[C@H](N)C(=O)O

Key:
[1] = system: Fusarium solani; test: Microdilution broth assay; format: cell-based; design: MIC against F. solani in PDB (n): unit not given beside the values; conditions: for MIC against F. solani in PDB (n): potato dextrose broth (low salt PDB)
Protocol: (§1) Microdilution broth and agar assays were used to assess the antifungal activity of the cyclic decapeptides in liquid media and on solid (gel) media, respectively.
(§2) The antibacterial activity of the tyrocidines and gramicidin S against all the bacteria tested was determined by the methods described by Du Toit E A and Rautenbach M (2000) J. Microbiol. Methods, 42, 159-165. The antifungal activity of the tyrocidines against all the […] tested was determined by the methods described by Troskie A M, Vlok N M and Rautenbach M (2012) J. Microbiol. Methods, 91, 551-558.

[2] = system: Botrytis cinerea; test: Microdilution broth assay; format: cell-based; design: MIC + SEM / MIC against B. cinerea in PDB (n): unit not given beside the values
Protocol: as §1, §2

[3] = system: Cylindrocarpon and Campylocarpon spp; conditions: 13 fungicides evaluated; Halleen et al. 2007; cited from earlier work
[4] = system: black foot disease; conditions: field conditions; Halleen et al. 2007; cited from earlier work
[5] = potato dextrose broth (low salt PDB)

Compound	MIC against F. solani in PDB (n) [1]	MIC against B. cinerea in PDB (n) [2, 5]	further results
CC(C)C[C@@H]1NC(=O)[C@H](CCCN)NC(=O)[C@H](C(C)C)NC(=O)[C@H](Cc2ccc(O)cc2)NC(=O)[C@H](CCC(N)=O)NC(=O)[C@H](CC(N)=O)NC(=O)[C@@H](Cc2ccccc2)NC(=O)[C@H](Cc2ccccc2)NC(=O)C2CCCN2C(=O)[C@@H](Cc2ccccc2)NC1=O (some centres unmarked) [TrcA, Cyclo-(VOLfPFfNQY)] (HELM PEPTIDE1{F.[dF].N.Q.Y.V.[Orn].L.[dF].[O=C(C1CCCN1[*:1])[*:2]]}$PEPTIDE1,PEPTIDE1,1:R1-10:R2$$$V2.0)	4.0 ± 0.4 (3)		MIC against B. cinerea in PDB (n) [2]: 5.2 ± 0.6 (6)
CCCCNC(=O)n1c(NC(=O)OC)nc2ccccc21 [benomyl]			in vitro mycelial inhibition [3]: able to effectively reduce mycelial growth in all fungal strains tested; protection of propagation material against black foot disease [4]: failed to protect propagation against black foot disease under field conditions
C=CCOC(Cn1ccnc1)c1ccc(Cl)cc1Cl (centres unmarked) [imazalil]			in vitro mycelial inhibition [3]: able to effectively reduce mycelial growth in all fungal strains tested; protection of propagation material against black foot disease [4]: failed to protect propagation against black foot disease under field conditions
CCCN(CCOc1c(Cl)cc(Cl)cc1Cl)C(=O)n1ccnc1.CCCN(CCOc1c(Cl)cc(Cl)cc1Cl)C(=O)n1ccnc1.CCCN(CCOc1c(Cl)cc(Cl)cc1Cl)C(=O)n1ccnc1.CCCN(CCOc1c(Cl)cc(Cl)cc1Cl)C(=O)n1ccnc1.[Cl][Mn][Cl] [prochloraz manganese chloride]			in vitro mycelial inhibition [3]: able to effectively reduce mycelial growth in all fungal strains tested; protection of propagation material against black foot disease [4]: failed to protect propagation against black foot disease under field conditions
Cyclo-(VKLfP(W,f)NQY) (VKLFPWFNQY; HELM PEPTIDE1{V.K.L.[dF].P.W.[dF].N.Q.Y}$PEPTIDE1,PEPTIDE1,1:R1-10:R2$$$V2.0; SMILES CC(C)C[C@@H]1NC(=O)[C@H](CCCCN)NC(=O)[C@H](C(C)C)NC(=O)[C@H](Cc2ccc(O)cc2)NC(=O)[C@H](CCC(N)=O)NC(=O)[C@H](CC(N)=O)NC(=O)[C@@H](Cc2ccccc2)NC(=O)[C@H](Cc2c[nH]c3ccccc23)NC(=O)[C@@H]2CCCN2C(=O)[C@@H](Cc2ccccc2)NC1=O) [TrcB1/B1′]	5.9 ± 0.6 (3)	3.6 ± 0.1 (6)	
Cyclo-(VKLfPFfNQY) (chain 1 VKL[dF]PF[dF]NQY; chain 2 VKL[dF]PF[dF]NQY; also: head-to-tail to a chain's N/C-terminus; listed as Bacillus aneurinolyticus) [TrcA1]	7.9 ± 0.7 (3)	4.1 ± 0.7 (6)	
Cyclo-(VKLfPWwNQY) (chain 1 VKL[dF]PW[dW]NQY; chain 2 VKL[dF]PW[dW]NQY; also: head-to-tail to a chain's N/C-terminus; listed as Bacillus aneurinolyticus) [TrcC1]	32 ± 2.8 (3)	8.9 ± 1.5 (3)	
Cyclo-(VOLfP(W,f)NQY) (VXLFPWFNQY; HELM PEPTIDE1{V.[Orn].L.[dF].P.W.[dF].N.Q.Y}$PEPTIDE1,PEPTIDE1,1:R1-10:R2$$$V2.0; SMILES CC(C)C[C@@H]1NC(=O)[C@H](CCCN)NC(=O)[C@H](C(C)C)NC(=O)[C@H](Cc2ccc(O)cc2)NC(=O)[C@H](CCC(N)=O)NC(=O)[C@H](CC(N)=O)NC(=O)[C@@H](Cc2ccccc2)NC(=O)[C@H](Cc2c[nH]c3ccccc23)NC(=O)[C@@H]2CCCN2C(=O)[C@@H](Cc2ccccc2)NC1=O) [TrcB/B′]	11 ± 4.0 (3)	5.1 ± 1.0 (6)	
Cyclo-(VOLfPFfNQF) (chain 1 V[Orn]L[dF]PF[dF]NQF; chain 2 V[Orn]L[dF]PF[dF]NQF; also: head-to-tail to a chain's N/C-terminus; listed as Bacillus aneurinolyticus) [PhcA]	7.2 ± 1.0 (3)	6.9 ± 1.4 (5)	loss of activity from PDB to YTSB ([1]; F. solani, PDB (low salt) vs YTSB (high salt)): ~5 fold; loss of activity from PDB to YTSB ([2]; B. cinerea, PDB (low salt) vs YTSB (high salt)): ~2 fold
Cyclo-(VOLfPWwNQW) (chain 1 V[Orn]L[dF]PW[dW]NQW; chain 2 V[Orn]L[dF]PW[dW]NQW; also: head-to-tail to a chain's N/C-terminus; listed as Bacillus aneurinolyticus) [TpcC]	4.6 ± 0.9 (3)	3.6 ± 0.2 (6)	decrease in activity from YTSB to PDB ([1]; F. solani, YTSB (high salt) vs PDB (low salt)): approximately twofold; decrease in activity from PDB to YTSB ([2]; B. cinerea, YTSB (high salt) vs PDB (low salt)): approximately twofold
Cyclo-(VOLfPWwNQY) (chain 1 V[Orn]L[dF]PW[dW]NQY; chain 2 V[Orn]L[dF]PW[dW]NQY; also: head-to-tail to a chain's N/C-terminus; listed as Bacillus aneurinolyticus) [TrcC]	4.3 ± 0.4 (3)	3.5 ± 0.2 (6)	
